Columns and labels:
Format in all cases: cell-based, human
PEG-encapsulated hMSCs = test: PEG-encapsulated hMSC proliferation by total cellular DNA concentration (PicoGreen)
Experimental: FIG. 7 Schematic representation of 18 day PEG-encapsulated hMSC culture after 24 hr exposure to BIO-containing media (A). Cell DNA concentration was quantified on days 0, 1, 5, 12, and 18 and shown to undergo a dose-dependent, BIO-mediated increase in proliferation (B), as previously shown in two-dimensional cultures. Representative LIVE/DEAD confocal images of PEG-encapsulated BIO-treated hMSC cultures (C).
A 10 wt % solution of PEGDM was prepared in phosphate buffered saline (PBS) with 2.0 mM acryloyl-PEG-RGDS. The photoinitiator lithium phenyl-2,4,6-trimethylbenzoylphosphinate (LAP) was synthesized using conventional techniques and added at a final concentration of 0.05 wt %. Trypsinized hMSCs were centrifuged to form pellets and counted. The PEG macromer solution was added to the cell pellet, and volumes were adjusted to achieve a final cell concentration of 25 million cells/mL. Using a sterile 1 mL syringe with the tip removed as a mold, 40 μL of PEG/cell solution was added and exposed to long-wavelength 365 nm light (5 mW/cm^2 intensity) for 10 min at room temperature. […]
Encapsulated hMSC proliferation was assessed using total cellular DNA concentration, assuming constant DNA per cell, using a Quant-iT PicoGreen dsDNA Assay Kit (Invitrogen). […]

hMSCs = test: alamarBlue metabolic assay of hMSC proliferation after BIO dosing (Example 1); settings: for effect on hMSC population (alamarBlue): 24 hr dosing
Experimental: FIG. 1. Proliferative effect of BIO after 24 hr dosing; 0 μM (-□-, grey squares), 2 μM (-∘-, open circles), 5 μM (-▴-, black triangles), 10 μM (-X-, black crosses). Proliferation was assessed using alamarBlue metabolic assay. Error bars shown are standard error (n=3).
The small molecule GSK3β inhibitor 6-bromoindirubin-3′-oxime was synthesized as previously described (Polychronopoulos et al., J Med Chem. 2004; 47(4):935-46). It is also commercially available (such as from Sigma). The molecule was solubilized in dimethyl sulfoxide (DMSO) to specified concentrations. hMSCs were plated at a density of 5,000 cell/cm2 in 24-well tissue culture plates. Cells were allowed to become adherent for a period of 24 hrs before BIO was introduced. 10 μL of BIO in DMSO were added to 1 mL of culture media so that the final concentrations of 2, 5, and 10 μM were achieved. […] Culture continued over 33 days with media being replaced every three days. An alamarBlue cell viability assay was performed on days: −1 (before BIO treatment), 0, 4, 8, 12, 14, 17, 23, 26, 28, and 33. Cell population was normalized to alamarBlue readings after the initial period of 24 hr BIO dosing.

[1] = system: markers of undifferentiated stem cells, Sox2, Nanog, and Oct4; test: RT-PCR of Sox2, Nanog, Oct4 in two-dimensionally cultured BIO-treated hMSCs, normalized to β-actin
Experimental: RT-PCR was used to assess gene expression of hMSCs over time. At days: 0 (before BIO treatment), 1, 3, 6, 19, 29, 34, 37, and 41, samples were lysed and total RNA was isolated (ENZA Total RNA Kit, Omega). Reverse transcription was performed using the iScript cDNA Synthesis Kit (Bio-Rad). The reverse transcription reaction was incubated at 25° C. for 5 min, 42° C. for 30 min, and terminated at 85° C. for 5 min. PCR was performed using a CFX96 Real-Time PCR System (Bio-Rad), monitoring sybrgreen products (SsoFastEvaGreen Master Mix, Bio-Rad). Primers for β-actin, sex determining region Y-box 2 (Sox2), Nanog homobox (Nanog), and octamer-binding transcription factor 4 (Oct4), core-binding factor subunit alpha-1 (Cbfa1, also known as Runx2), sex determining region Y-box 9 (Sox9), and peroxisome proliferator-activated receptor gamma (PPARγ) were used (Table 2). The PCR parameters used were as follows: hold at 95° C. for 5 min, followed by 40 cycles of: 95° C. for 15 sec denaturation, 60° C. (β-actin, Sox2, Sox9), or 57° C. (Nanog, Oct4, Cbfa1), or 55° C. (PPARγ) for 60 sec annealing, and 72° C. for 20 sec extension. Threshold cycle (CT) analysis was used to quantify PCR products normalized to the cellular housekeeping gene β-actin. Relative gene quantification was performed using the Pfaffl Method, taking into account the variation between primer efficiencies.
To more closely examine BIO's effects on hMSCs gene expression profiles for the markers of undifferentiated stem cells sex determining region Y-box 2 (Sox2), Nanog homobox (Nanog), and octamer-binding transcription factor 4 (Oct4) were monitored and normalized to the housekeeping gene β-actin. […] RNA was collected just before, and 1, 3, 6, 19, 27, 34, 37, and 41 days after the BIO treatment Results were quantified over time and again, normalized to both the housekeeping gene β-actin and untreated controls (0 μM BIO), and the results are shown in FIG. 5.

O=C1Nc2cc(Br)ccc2/C1=C1/Nc2ccccc2/C1=N\O [BIO, 6-bromoindirubin-3′-oxime]
3D proliferation relative to untreated control (PEG-encapsulated hMSCs; 5 uM BIO): 120%
increase in proliferation (normalized DNA concentration) versus 0 μM (PEG-encapsulated hMSCs; 5 μM BIO, at both days 12 and 18, PEG hydrogels): 20%
effect on hMSC population (alamarBlue) (hMSCs; BIO 2-5 μM): dose dependent proliferative response
effect on hMSC population (alamarBlue) (hMSCs; BIO concentrations below 2 μM): did not have a noticeable effect
effect of continual dosing on hMSCs (hMSCs; continual dosing with BIO, parallel study (data not shown)): complete cell death by day 5
Nanog gene expression compared to untreated control ([1]; 2 μM BIO, day 1, 2D): 5.4 fold
Oct4 gene expression compared to untreated control ([1]; 2 μM BIO, day 1, 2D): 5.1 fold
Sox2 gene expression compared to untreated control ([1]; 2 μM BIO, day 1, 2D): 7.1 fold
Nanog gene expression compared to untreated control ([1]; 2 μM BIO, day 3, 2D): 1.0 fold
Oct4 gene expression compared to untreated control ([1]; 2 μM BIO, day 3, 2D): 3.4 fold
Sox2 gene expression compared to untreated control ([1]; 2 μM BIO, day 3, 2D): 4.4 fold
Nanog gene expression compared to untreated control ([1]; 5 μM BIO, day 1, 2D): 15.3 fold
Oct4 gene expression compared to untreated control ([1]; 5 μM BIO, day 1, 2D): 16.9 fold
Sox2 gene expression compared to untreated control ([1]; 5 μM BIO, day 1, 2D): 96.4 fold
Nanog gene expression compared to untreated control ([1]; 5 μM BIO, day 3, 2D): 4.8 fold
Oct4 gene expression compared to untreated control ([1]; 5 μM BIO, day 3, 2D): 9.8 fold
Sox2 gene expression compared to untreated control ([1]; 5 μM BIO, day 3, 2D): 17.7 fold
increase of Nanog expression relative to untreated controls ([1]; day 1, 2 uM BIO): 797%
increase of Oct4 expression relative to untreated controls ([1]; day 1, 2 uM BIO): 545%
increase of Sox2 expression relative to untreated controls ([1]; day 1, 2 uM BIO): 677%
increase of Nanog expression relative to untreated controls ([1]; day 1, 5 uM BIO): 2247%
increase of Oct4 expression relative to untreated controls ([1]; day 1, 5 uM BIO): 1800%
increase of Sox2 expression relative to untreated controls ([1]; day 1, 5 uM BIO): 9180%
increase of Nanog expression relative to untreated controls ([1]; day 3, 2 uM BIO): 71%
increase of Oct4 expression relative to untreated controls ([1]; day 3, 2 uM BIO): 263%
increase of Sox2 expression relative to untreated controls ([1]; day 3, 2 uM BIO): 312%
increase of Nanog expression relative to untreated controls ([1]; day 3, 5 uM BIO): 324%
increase of Oct4 expression relative to untreated controls ([1]; day 3, 5 uM BIO): 755%
increase of Sox2 expression relative to untreated controls ([1]; day 3, 5 uM BIO): 1238%

Source: patent publication US9193954B2, “Methods and compositions for mesenchymal stem cell proliferation” (priority 2011, dated 2015)
